Test results reported in article PMC11157767 (Molecular Cancer, 2024).

Test system: TRIM24-MET-i cells
Method: The number of unique and shared differentially expressed genes between each comparison are shown in parentheses. A linear regression line is depicted along with Pearson’s correlation coefficient (r) and its associated p-value. […] Common negatively enriched genesets between all three comparisons are in bold. c, Heatmaps showing expression of Hallmark_Myc_Target_v1/2 genes for indicated cells and treatment comparisons (TRIM-MET cells were treated in vitro, TFG-MET cells in vivo). Select leading edge genes from GSEA are labeled.

## C[C@@H](Oc1cc(-c2cnn(C3CCNCC3)c2)cnc1N)c1c(Cl)ccc(F)c1Cl [Crizotinib]
  ES GOMF_CATALYTIC_ACTIVITY_ACTING_ON_A_TRNA: -0.6982
  ES GOMF_GTPASE_ACTIVITY: -0.4838
  ES GOMF_GUANYL_NUCLEOTIDE_BINDING: -0.4485
  ES GOMF_HYDROLASE_ACTIVITY_ACTING_ON_ACID_ANHYDRIDES: -0.386
  ES GOMF_RRNA_BINDING: -0.7423
  NES GOMF_CATALYTIC_ACTIVITY_ACTING_ON_A_TRNA: -2.2819
  NES GOMF_GTPASE_ACTIVITY: -1.922
  NES GOMF_GUANYL_NUCLEOTIDE_BINDING: -1.812
  NES GOMF_HYDROLASE_ACTIVITY_ACTING_ON_ACID_ANHYDRIDES: -1.664
  NES GOMF_RRNA_BINDING: -2.231
GSEA v. DMSO
  ES GARY_CD5_TARGETS_DN: -0.652
  ES HALLMARK_ADIPOGENESIS: -0.2603
  ES HALLMARK_ALLOGRAFT_REJECTION: -0.4058
  ES HALLMARK_ANDROGEN_RESPONSE: -0.4828
  ES HALLMARK_ANGIOGENESIS: -0.5624
  ES HALLMARK_APICAL_JUNCTION: -0.293
  ES HALLMARK_APICAL_SURFACE: 0.4986
  ES HALLMARK_APOPTOSIS: -0.4398
  ES HALLMARK_CHOLESTEROL_HOMEOSTASIS: 0.2795
  ES HALLMARK_COAGULATION: -0.4513
  ES HALLMARK_COMPLEMENT: -0.5126
  ES HALLMARK_DNA_REPAIR: -0.2541
  ES HALLMARK_E2F_TARGETS: -0.2746
  ES HALLMARK_EPITHELIAL_MESENCHYMAL_TRANSITION: -0.3755
  ES HALLMARK_ESTROGEN_RESPONSE_EARLY: -0.4277
  ES HALLMARK_ESTROGEN_RESPONSE_LATE: -0.3421
  ES HALLMARK_G2M_CHECKPOINT: -0.3012
  ES HALLMARK_GLYCOLYSIS: -0.404
  ES HALLMARK_HEDGEHOG_SIGNALING: -0.4466
  ES HALLMARK_HYPOXIA: -0.3351
  ES HALLMARK_IL2_STAT5_SIGNALING: -0.5189
  ES HALLMARK_IL6_JAK_STAT3_SIGNALING: -0.4268
  ES HALLMARK_INFLAMMATORY_RESPONSE: -0.4921
  ES HALLMARK_INTERFERON_ALPHA_RESPONSE: 0.2583
  ES HALLMARK_INTERFERON_GAMMA_RESPONSE: -0.3093
  ES HALLMARK_KRAS_SIGNALING_DN: 0.3288
  ES HALLMARK_KRAS_SIGNALING_UP: -0.4922
  ES HALLMARK_MITOTIC_SPINDLE: -0.2568
  ES HALLMARK_MTORC1_SIGNALING: -0.5236
  ES HALLMARK_MYC_TARGETS_V1: -0.6267
  ES HALLMARK_MYC_TARGETS_V2: -0.805
  ES HALLMARK_MYOGENESIS: -0.2282
  ES HALLMARK_NOTCH_SIGNALING: -0.4408
  ES HALLMARK_OXIDATIVE_PHOSPHORYLATION: -0.4296
  ES HALLMARK_P53_PATHWAY: -0.2784
  ES HALLMARK_PANCREAS_BETA_CELLS: 0.2429
  ES HALLMARK_PEROXISOME: 0.273
  ES HALLMARK_PI3K_AKT_MTOR_SIGNALING: -0.3625
  ES HALLMARK_PROTEIN_SECRETION: -0.4081
  ES HALLMARK_TGF_BETA_SIGNALING: -0.5775
  ES HALLMARK_TNFA_SIGNALING_VIA_NFKB: -0.5914
  ES HALLMARK_UNFOLDED_PROTEIN_RESPONSE: -0.6237
  ES HALLMARK_UV_RESPONSE_DN: -0.3089
  ES HALLMARK_UV_RESPONSE_UP: -0.4076
  ES HALLMARK_WNT_BETA_CATENIN_SIGNALING: -0.3432
  ES KRIGE_RESPONSE_TO_TOSEDOSTAT_6HR_DN: -0.6237
  ES KRIGE_RESPONSE_TO_TOSEDOSTAT_24HR_DN: -0.6444
  ES LEE_BMP2_TARGETS_DN: -0.6669
  ES WEI_MYCN_TARGETS_WITH_E_BOX: -0.6994
  NES GARY_CD5_TARGETS_DN: -2.697
  NES HALLMARK_ADIPOGENESIS: -0.9905
  NES HALLMARK_ALLOGRAFT_REJECTION: -1.519
  NES HALLMARK_ANDROGEN_RESPONSE: -1.666
  NES HALLMARK_ANGIOGENESIS: -1.626
  NES HALLMARK_APICAL_JUNCTION: -1.114
  NES HALLMARK_APICAL_SURFACE: 1.572
  NES HALLMARK_APOPTOSIS: -1.646
  NES HALLMARK_CHOLESTEROL_HOMEOSTASIS: 0.993
  NES HALLMARK_COAGULATION: -1.59
  NES HALLMARK_COMPLEMENT: -1.9374
  NES HALLMARK_DNA_REPAIR: -0.9367
  NES HALLMARK_E2F_TARGETS: -1.051
  NES HALLMARK_EPITHELIAL_MESENCHYMAL_TRANSITION: -1.427
  NES HALLMARK_ESTROGEN_RESPONSE_EARLY: -1.626
  NES HALLMARK_ESTROGEN_RESPONSE_LATE: -1.298
  NES HALLMARK_G2M_CHECKPOINT: -1.145
  NES HALLMARK_GLYCOLYSIS: -1.5363
  NES HALLMARK_HEDGEHOG_SIGNALING: -1.301
  NES HALLMARK_HYPOXIA: -1.274
  NES HALLMARK_IL2_STAT5_SIGNALING: -1.973
  NES HALLMARK_IL6_JAK_STAT3_SIGNALING: -1.432
  NES HALLMARK_INFLAMMATORY_RESPONSE: -1.856
  NES HALLMARK_INTERFERON_ALPHA_RESPONSE: 0.9765
  NES HALLMARK_INTERFERON_GAMMA_RESPONSE: -1.175
  NES HALLMARK_KRAS_SIGNALING_DN: 1.322
  NES HALLMARK_KRAS_SIGNALING_UP: -1.8648
  NES HALLMARK_MITOTIC_SPINDLE: -0.9855
  NES HALLMARK_MTORC1_SIGNALING: -2.004
  NES HALLMARK_MYC_TARGETS_V1: -2.398
  NES HALLMARK_MYC_TARGETS_V2: -2.6016
  NES HALLMARK_MYOGENESIS: -0.867
  NES HALLMARK_NOTCH_SIGNALING: -1.2742
  NES HALLMARK_OXIDATIVE_PHOSPHORYLATION: -1.635
  NES HALLMARK_P53_PATHWAY: -1.06
  NES HALLMARK_PANCREAS_BETA_CELLS: 0.7197
  NES HALLMARK_PEROXISOME: 1.047
  NES HALLMARK_PI3K_AKT_MTOR_SIGNALING: -1.259
  NES HALLMARK_PROTEIN_SECRETION: -1.414
  NES HALLMARK_TGF_BETA_SIGNALING: -1.842
  NES HALLMARK_TNFA_SIGNALING_VIA_NFKB: -2.258
  NES HALLMARK_UNFOLDED_PROTEIN_RESPONSE: -2.204
  NES HALLMARK_UV_RESPONSE_DN: -1.132
  NES HALLMARK_UV_RESPONSE_UP: -1.522
  NES HALLMARK_WNT_BETA_CATENIN_SIGNALING: -1.0353
  NES KRIGE_RESPONSE_TO_TOSEDOSTAT_6HR_DN: -2.692
  NES KRIGE_RESPONSE_TO_TOSEDOSTAT_24HR_DN: -2.791
  NES LEE_BMP2_TARGETS_DN: -2.874
  NES WEI_MYCN_TARGETS_WITH_E_BOX: -3.001
GSEA, v. DMSO
  ES GOBP_NCRNA_PROCESSING: -0.7604
  ES GOBP_RIBONUCLEOPROTEIN_COMPLEX_BIOGENESIS: -0.7216
  ES GOBP_RIBOSOME_BIOGENESIS: -0.7916
